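Interpolation was linear, between the two tested concentrations surrounding the appropriate level; five concentrations were tested over 48 hours in 96-well plates. The concentration for 50% growth inhibition is given as GI50.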 Activity calls are given as the source filed them. No stated cut-off is given here; in the data, active = GI50 up to about 1.1 µM and inactive = higher.
Columns and labels:
Test in all cases: NCI-60 cell line screen, 48 h
786-0 = tested on: 786-0
SNB-19 = tested on: SNB-19
MOLT-4 = tested on: MOLT-4
U-251 = tested on: U-251
A549 = tested on: A549
OVCAR-5 = tested on: OVCAR-5
SNB-75 = tested on: SNB-75
HL-60 = tested on: HL-60
LOX IMVI = tested on: LOX IMVI
KM12 = tested on: KM12
NCI-H226 = tested on: NCI-H226
SK-MEL-5 = tested on: SK-MEL-5
RXF 393 = tested on: RXF 393
K562 = tested on: K562
TK-10 = tested on: TK-10
UACC-62 = tested on: UACC-62
SK-MEL-28 = tested on: SK-MEL-28
OVCAR-8 = tested on: OVCAR-8
SK-MEL-2 = tested on: SK-MEL-2

Measured: GI50

Cn1c(=O)oc2cc(C3CCC(=O)N3Cc3csc(-c4ccccc4)n3)ccc21 (configuration not stated)
inactive: 786-0 > 100 µM | SNB-19 > 100 µM | MOLT-4 58.2 µM | U-251 > 100 µM | A549 > 100 µM | OVCAR-5 > 100 µM | SNB-75 25.3 µM | HL-60 79.8 µM | LOX IMVI > 100 µM | KM12 76.2 µM | NCI-H226 > 100 µM | SK-MEL-5 > 100 µM | RXF 393 39.9 µM | K562 64.6 µM | TK-10 > 100 µM | UACC-62 > 100 µM | SK-MEL-28 > 100 µM | OVCAR-8 > 100 µM | SK-MEL-2 > 100 µM

Cc1c(C2Cc3ccccc3N2)c2ccccc2n1C (configuration not stated)
inactive: 786-0 > 100 µM | SNB-19 > 100 µM | MOLT-4 > 100 µM | U-251 > 100 µM | A549 > 100 µM | OVCAR-5 > 100 µM | SNB-75 > 100 µM | HL-60 > 100 µM | LOX IMVI > 100 µM | KM12 > 100 µM | NCI-H226 > 100 µM | SK-MEL-5 > 100 µM | RXF 393 > 100 µM | K562 > 100 µM | TK-10 > 100 µM | UACC-62 > 100 µM | OVCAR-8 > 100 µM | SK-MEL-2 > 100 µM

O=C1NC2OC(CO)C(O)C(O1)C2O (configuration not stated)
inactive: 786-0 > 100 µM | SNB-19 > 100 µM | MOLT-4 > 100 µM | U-251 > 100 µM | OVCAR-5 > 100 µM | SNB-75 > 100 µM | HL-60 > 100 µM | LOX IMVI > 100 µM | KM12 > 100 µM | NCI-H226 > 100 µM | SK-MEL-5 > 100 µM | RXF 393 > 100 µM | K562 > 100 µM | TK-10 > 100 µM | UACC-62 > 100 µM | SK-MEL-28 > 100 µM | OVCAR-8 > 100 µM | SK-MEL-2 > 100 µM

O=C1CCC(=O)N2CCCCN12
inactive: 786-0 > 100 µM | SNB-19 > 100 µM | MOLT-4 > 100 µM | U-251 > 100 µM | A549 > 100 µM | OVCAR-5 > 100 µM | SNB-75 > 100 µM | HL-60 > 100 µM | LOX IMVI > 100 µM | KM12 > 100 µM | NCI-H226 > 100 µM | SK-MEL-5 > 100 µM | RXF 393 > 100 µM | K562 > 100 µM | TK-10 > 100 µM | UACC-62 > 100 µM | SK-MEL-28 > 100 µM | OVCAR-8 > 100 µM | SK-MEL-2 > 100 µM

C/C(CC(=O)Nc1ccc([N+](=O)[O-])cc1)=N\NC(N)=O
inactive: 786-0 > 100 µM | SNB-19 > 100 µM | MOLT-4 > 100 µM | U-251 > 100 µM | A549 > 100 µM | OVCAR-5 > 100 µM | SNB-75 > 100 µM | HL-60 > 100 µM | LOX IMVI > 64.7 µM | KM12 > 100 µM | NCI-H226 > 100 µM | SK-MEL-5 > 68.7 µM | RXF 393 > 100 µM | K562 > 70.8 µM | TK-10 > 100 µM | UACC-62 > 71.3 µM | SK-MEL-28 > 100 µM | OVCAR-8 > 44.4 µM | SK-MEL-2 > 100 µM

CCOC(=O)Cc1csc(Nc2ccccc2[N+](=O)[O-])n1
inactive: 786-0 > 100 µM | SNB-19 > 100 µM | MOLT-4 > 100 µM | U-251 > 100 µM | A549 > 100 µM | OVCAR-5 > 100 µM | SNB-75 > 100 µM | HL-60 > 100 µM | LOX IMVI > 46.7 µM | KM12 > 100 µM | NCI-H226 > 100 µM | SK-MEL-5 > 100 µM | RXF 393 > 100 µM | K562 > 100 µM | TK-10 > 100 µM | UACC-62 > 100 µM | SK-MEL-28 > 100 µM | OVCAR-8 > 100 µM | SK-MEL-2 > 100 µM

Source: ChEMBL document CHEMBL1201862, “PubChem BioAssay data set” (2004)
